ChEMBL document CHEMBL1201862, “PubChem BioAssay data set” (2004)
Active and inactive are the calls of the source.

Legend:
[1] = target: Voltage-gated inwardly rectifying potassium channel KCNH2 (Homo sapiens, UniProt Q12809); settings: Potency;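 note: confirmatory quantitative high-throughput screen measuring inhibition of hERG channel activity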
[2] = target: Beta-adrenergic receptor kinase 1 (Homo sapiens, UniProt P25098); assay: blockers of aptamer binding to GRK2 – biochemical, flow cytometry beads, FAM-aptamer, powder set 1, dose response (AID 588720)
[3] = luciferase reporter signal suppression in cells – H4 neuroglioma cells, luminescence, dose response (AID 1990); type: functional, cell-based
[4] = HEK-293T viability loss, compound-treated – cell-based, uHTS hits, cytotoxicity control for B/T-cell NF-kB inhibitor project, dose response (AID 489019); type: functional;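 note: IC50 reflects cytotoxicity as loss of cell viability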
[5] = Luminescence Cell-Based Dose Response HTS to Identify Inhibitors of 5'UTR Stem-Loop Driven Prion Protein mRNA Translation in H4 Neuroglioblastoma Cells. [Related pubchem assays: 1827 (Project Summary), 1813 (Primary HTS)]; type: functional
Jurkat = assay: blockers of NF-kB activation in T cells – Jurkat, luciferase reporter, luminescence, B- and T-cell, dose response (AID 489004); type: functional, cell-based; settings: Homo sapiens;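 note: NF-kB luciferase reporter Jurkat cells stimulated with PMA plus ionomycin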
[6] = alpha-synuclein stem-loop luciferase translation blockers – H4 neuroglioma cells, luminescence, confirmation (AID 1988); type: functional, cell-based
[7] = viability loss in CEM21 cells – cell-based, CellTiter-Glo luminescence, cherry-picked, cytotoxicity control for viral fusion inhibitor project, dose response (AID 652042); type: functional;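 note: potency for signal decrease meaning cytotoxicity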
[8] = off-target signal loss in HeLa-CEM21 co-culture – HeLa F-luc CTL cells, cherry-picked, counter-screen for HIV-1 Env fusion inhibitor project, dose response (AID 652040); type: functional, cell-based;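 note: potency for signal decrease marking cytotoxic or nonspecific inhibition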
[9] = HIV-1 AD8 envelope cell-cell fusion blockers – cherry-pick, dose response (AID 652062); type: functional, cell-based;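 note: luciferase signal from cell-cell fusion driven by HIV-1 clade B AD8 Env; potency is for inhibitors of fusion seen as a drop in luminescence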
[10] = target: T1, Short transient receptor potential channel 4 (Mus musculus, UniProt Q9QUQ5); assay: calcium entry via TRPC4 opening agents – cell-based, HEK293 TRPC4/mu-opioid, Fluo-4 calcium, dose response (AID 434937); type: functional
T1 sequence (Q9QUQ5 whole entry): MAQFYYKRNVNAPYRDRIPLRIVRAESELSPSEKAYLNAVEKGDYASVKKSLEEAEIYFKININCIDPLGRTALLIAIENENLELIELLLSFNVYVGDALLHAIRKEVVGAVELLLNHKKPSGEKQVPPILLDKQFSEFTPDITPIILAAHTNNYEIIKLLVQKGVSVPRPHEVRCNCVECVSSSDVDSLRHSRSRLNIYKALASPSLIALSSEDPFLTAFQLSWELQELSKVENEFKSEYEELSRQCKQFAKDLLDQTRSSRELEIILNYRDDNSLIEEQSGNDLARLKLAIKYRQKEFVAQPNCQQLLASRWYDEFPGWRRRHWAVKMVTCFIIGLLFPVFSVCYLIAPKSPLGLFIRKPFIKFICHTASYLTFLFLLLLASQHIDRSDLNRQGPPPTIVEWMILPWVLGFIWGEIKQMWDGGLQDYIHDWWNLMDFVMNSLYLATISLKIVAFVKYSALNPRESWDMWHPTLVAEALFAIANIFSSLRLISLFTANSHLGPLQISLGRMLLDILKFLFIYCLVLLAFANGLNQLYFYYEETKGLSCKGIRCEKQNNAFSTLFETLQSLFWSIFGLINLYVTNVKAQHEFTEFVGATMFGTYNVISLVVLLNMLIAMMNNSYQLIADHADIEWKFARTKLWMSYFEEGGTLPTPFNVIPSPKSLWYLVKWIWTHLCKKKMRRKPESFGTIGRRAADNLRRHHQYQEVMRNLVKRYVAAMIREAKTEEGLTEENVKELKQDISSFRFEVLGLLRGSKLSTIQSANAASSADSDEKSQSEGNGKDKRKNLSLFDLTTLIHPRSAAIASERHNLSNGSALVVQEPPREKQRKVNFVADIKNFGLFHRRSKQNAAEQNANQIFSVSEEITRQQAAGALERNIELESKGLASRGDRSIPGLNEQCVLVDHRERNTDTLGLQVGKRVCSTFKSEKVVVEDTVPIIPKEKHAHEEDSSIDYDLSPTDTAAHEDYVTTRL

Mu-type opioid receptor = Mu-type opioid receptor (Homo sapiens, UniProt P35372); assay: Counterscreen for agonists of heterodimerization of the mu 1 (OPRM1) and delta 1 (OPRD1) opioid receptors: Luminescence-based cell-based high throughput dose response assay to identify agonists of OPRM1 homodimerization.; type: functional;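 note: U2OS cells expressing OPRM1 and beta-arrestin as split beta-galactosidase partners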
[11] = target: Delta-type opioid receptor (Homo sapiens, UniProt P41143); assay: Counterscreen for agonists of heterodimerization of the mu 1 (OPRM1) and delta 1 (OPRD1) opioid receptors: Luminescence-based cell-based high throughput dose response assay to identify agonists of OPRD1 homodimerization. [Related pubchem assays (depositor defined):AID504326, AID504355, AID504692, AID504904, AID504905]; type: functional
Chain of Delta-type opioid receptor (P41143 whole entry): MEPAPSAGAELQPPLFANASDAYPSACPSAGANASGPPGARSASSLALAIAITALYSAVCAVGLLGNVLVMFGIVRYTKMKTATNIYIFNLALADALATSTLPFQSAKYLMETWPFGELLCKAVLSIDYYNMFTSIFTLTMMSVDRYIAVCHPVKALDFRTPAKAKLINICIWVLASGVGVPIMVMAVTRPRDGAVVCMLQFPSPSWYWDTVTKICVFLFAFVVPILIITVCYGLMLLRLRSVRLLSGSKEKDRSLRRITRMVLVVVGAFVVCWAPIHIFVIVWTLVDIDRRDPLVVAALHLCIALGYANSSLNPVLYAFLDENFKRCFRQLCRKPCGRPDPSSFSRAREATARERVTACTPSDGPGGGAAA

[12] = target: 5-hydroxytryptamine receptor 5A (Homo sapiens, UniProt P47898); assay: Counterscreen for agonists of OPRM1-OPRD1 heterodimerization: luminescence-based cell-based high throughput dose response assay to identify agonists of 5-hydroxytryptamine (serotonin) 5A receptor (HTR5A). [Related pubchem assays (depositor defined):AID504326, AID504355, AID504692, AID504904, AID504905]; type: functional
ORF 73 = ORF 73 (Human herpesvirus 8, UniProt O40947); assay: KSHV LANA DNA-binding disruption – biochemical, fluorescence polarization, cherry-picked samples, dose response (AID 504725); set-up: species or system Human gammaherpesvirus 8;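 note: fluorescence polarization of a labeled DNA duplex reporting LANA DNA binding; potency is for inhibitors that block LANA binding to the DNA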
CHO = CHO cell viability loss, potency – luminescence, cytotoxicity control for TLR9-MyD88 binding inhibitor project, dose response (AID 588339); type: functional, cell-based, hamster; settings: Cricetulus griseus;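 note: CHO cells stably coexpressing TLR9 and MyD88 fusions from primary screen; compound exposure lasted 48 hours before viability readout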
Keap1/Nrf2 = Keap1/Nrf2 (Homo sapiens, UniProt Q14145); assay: disruptors of Keap1 binding to Nrf2 peptide – biochemical, fluorescence polarization, cherry-picked samples, dose response (AID 588683)
Beta Lactamase = Beta Lactamase (Pseudomonas aeruginosa, UniProt Q932Y6); assay: BLA reporter interference, concentration series – BLA reporter cells, FRET fluorescence, artefact control for TLR9-MyD88 binding inhibitor project, dose response (AID 588341); type: cell-based;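 note: cell based assay in CHO-K1 cells stably expressing beta-lactamase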
[13] = target: Dual specificity tyrosine-phosphorylation-regulated kinase 1A (Rattus norvegicus, UniProt Q63470); type: biochemical, Homo sapiens
Large T antigen = Large T antigen (Simian virus 40, UniProt P03070); type: functional, Betapolyomavirus macacae;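 note: Confirmatory-stage PubChem screen for compounds that inhibit SV40 T antigen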
Chain of Large T antigen (P03070 whole entry): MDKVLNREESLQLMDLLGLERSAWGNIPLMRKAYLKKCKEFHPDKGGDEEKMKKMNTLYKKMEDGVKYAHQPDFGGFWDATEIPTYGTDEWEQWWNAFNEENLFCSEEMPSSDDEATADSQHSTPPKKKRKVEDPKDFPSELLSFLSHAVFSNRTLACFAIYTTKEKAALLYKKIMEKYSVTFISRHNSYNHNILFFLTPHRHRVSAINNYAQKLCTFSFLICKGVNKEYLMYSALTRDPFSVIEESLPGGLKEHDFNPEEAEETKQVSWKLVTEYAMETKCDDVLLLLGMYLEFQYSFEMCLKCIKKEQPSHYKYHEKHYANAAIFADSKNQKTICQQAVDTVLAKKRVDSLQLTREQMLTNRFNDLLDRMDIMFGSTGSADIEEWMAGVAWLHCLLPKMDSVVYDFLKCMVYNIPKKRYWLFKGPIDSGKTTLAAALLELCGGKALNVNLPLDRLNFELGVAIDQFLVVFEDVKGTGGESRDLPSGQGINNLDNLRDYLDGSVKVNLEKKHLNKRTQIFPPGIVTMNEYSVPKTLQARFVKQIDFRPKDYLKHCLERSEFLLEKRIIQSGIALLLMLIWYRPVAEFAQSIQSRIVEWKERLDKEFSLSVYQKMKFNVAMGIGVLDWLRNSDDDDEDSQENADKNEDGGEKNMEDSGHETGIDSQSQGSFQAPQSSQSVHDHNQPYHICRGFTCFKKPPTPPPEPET

[14] = Counterscreen for AddAB inhibitors: absorbance-based bacterial cell-based high throughput dose response assay for inhibitors of bacterial viability. [Related pubchem assays (depositor defined):AID435030, AID449728, AID449731, AID488942, AID488955, AID488956]; type: functional
[15] = target: Transitional endoplasmic reticulum ATPase (Homo sapiens, UniProt P55072); assay: p97 ATPase inhibitors, dose response, biochemical (AID 1534)
Bcl-2-like protein 1 = Bcl-2-like protein 1 (Homo sapiens, UniProt Q07817); assay: blockers of BCLXL peptide binding – biochemical, fluorescence polarization, 1536-well, selectivity assay for MCL1 inhibitor project, dose response (AID 2218)
[16] = Late-stage probe development counterscreen for inhibitors of the Hepatitis C Virus non-structural protein 3 helicase (NS3): luminescence-based cell-based dose response assay to determine whether compounds that inhibit replication of HCV RNA replicon are cytotoxic. [Related pubchem assays (depositor defined):AID1800, AID1830, AID1845, AID1943, AID1945, AID2172, AID2173, AID2474, AID2476]; type: functional
Exodeoxyribonuclease V = Exodeoxyribonuclease V (Escherichia coli (strain K12), UniProt P04993+P07648+P08394); assay: RecBCD inhibition via phage-restricted bacterial growth – absorbance, V66 E. coli, mutant T4 phage, counter-screen for AddAB inhibitor project, dose response (AID 492957); type: functional, cell-based, Escherichia coli str. K-12 substr. MG1655
Chain of Exodeoxyribonuclease V (P04993 whole entry): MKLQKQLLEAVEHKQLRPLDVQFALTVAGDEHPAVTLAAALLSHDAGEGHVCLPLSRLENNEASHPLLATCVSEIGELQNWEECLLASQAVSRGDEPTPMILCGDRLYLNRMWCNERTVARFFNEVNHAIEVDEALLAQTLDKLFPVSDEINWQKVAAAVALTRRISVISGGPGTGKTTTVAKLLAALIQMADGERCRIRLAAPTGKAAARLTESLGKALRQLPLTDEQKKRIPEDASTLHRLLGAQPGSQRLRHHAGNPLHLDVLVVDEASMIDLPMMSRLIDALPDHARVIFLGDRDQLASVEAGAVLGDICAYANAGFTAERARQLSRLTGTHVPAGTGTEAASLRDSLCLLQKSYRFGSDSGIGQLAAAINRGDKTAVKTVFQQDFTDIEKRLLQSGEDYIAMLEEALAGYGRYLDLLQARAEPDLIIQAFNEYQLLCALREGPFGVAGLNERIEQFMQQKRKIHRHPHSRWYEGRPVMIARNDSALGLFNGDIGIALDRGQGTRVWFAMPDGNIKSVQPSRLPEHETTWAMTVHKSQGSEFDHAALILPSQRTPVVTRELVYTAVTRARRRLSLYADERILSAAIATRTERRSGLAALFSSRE
Chain of Exodeoxyribonuclease V (P07648 whole entry): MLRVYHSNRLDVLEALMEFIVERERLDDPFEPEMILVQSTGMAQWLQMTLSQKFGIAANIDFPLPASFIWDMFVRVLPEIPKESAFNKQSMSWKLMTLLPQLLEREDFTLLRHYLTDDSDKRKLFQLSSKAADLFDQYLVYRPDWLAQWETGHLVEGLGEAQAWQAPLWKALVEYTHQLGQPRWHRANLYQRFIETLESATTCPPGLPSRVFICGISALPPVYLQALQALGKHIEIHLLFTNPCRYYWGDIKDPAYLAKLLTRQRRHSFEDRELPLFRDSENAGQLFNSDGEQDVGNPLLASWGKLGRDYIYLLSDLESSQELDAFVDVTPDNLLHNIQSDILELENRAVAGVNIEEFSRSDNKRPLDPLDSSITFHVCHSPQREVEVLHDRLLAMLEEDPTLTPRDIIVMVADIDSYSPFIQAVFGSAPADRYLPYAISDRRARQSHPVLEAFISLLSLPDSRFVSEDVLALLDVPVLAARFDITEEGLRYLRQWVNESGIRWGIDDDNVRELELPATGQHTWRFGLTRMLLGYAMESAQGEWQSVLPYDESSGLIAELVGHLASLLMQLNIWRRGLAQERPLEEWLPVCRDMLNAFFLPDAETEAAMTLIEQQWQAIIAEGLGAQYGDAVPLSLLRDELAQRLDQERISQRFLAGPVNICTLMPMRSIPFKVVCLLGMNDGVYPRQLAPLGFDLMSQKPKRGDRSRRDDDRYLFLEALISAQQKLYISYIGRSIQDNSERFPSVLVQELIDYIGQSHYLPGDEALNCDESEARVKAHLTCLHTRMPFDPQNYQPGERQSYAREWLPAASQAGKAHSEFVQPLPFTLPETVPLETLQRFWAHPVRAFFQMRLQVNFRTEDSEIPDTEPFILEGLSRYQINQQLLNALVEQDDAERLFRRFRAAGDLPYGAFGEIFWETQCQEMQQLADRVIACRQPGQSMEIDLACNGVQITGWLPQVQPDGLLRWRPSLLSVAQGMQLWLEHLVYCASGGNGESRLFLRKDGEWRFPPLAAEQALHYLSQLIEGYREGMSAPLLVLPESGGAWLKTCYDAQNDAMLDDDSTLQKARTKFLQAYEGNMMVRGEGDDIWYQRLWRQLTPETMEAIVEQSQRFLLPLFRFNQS
Chain of Exodeoxyribonuclease V (P08394 whole entry): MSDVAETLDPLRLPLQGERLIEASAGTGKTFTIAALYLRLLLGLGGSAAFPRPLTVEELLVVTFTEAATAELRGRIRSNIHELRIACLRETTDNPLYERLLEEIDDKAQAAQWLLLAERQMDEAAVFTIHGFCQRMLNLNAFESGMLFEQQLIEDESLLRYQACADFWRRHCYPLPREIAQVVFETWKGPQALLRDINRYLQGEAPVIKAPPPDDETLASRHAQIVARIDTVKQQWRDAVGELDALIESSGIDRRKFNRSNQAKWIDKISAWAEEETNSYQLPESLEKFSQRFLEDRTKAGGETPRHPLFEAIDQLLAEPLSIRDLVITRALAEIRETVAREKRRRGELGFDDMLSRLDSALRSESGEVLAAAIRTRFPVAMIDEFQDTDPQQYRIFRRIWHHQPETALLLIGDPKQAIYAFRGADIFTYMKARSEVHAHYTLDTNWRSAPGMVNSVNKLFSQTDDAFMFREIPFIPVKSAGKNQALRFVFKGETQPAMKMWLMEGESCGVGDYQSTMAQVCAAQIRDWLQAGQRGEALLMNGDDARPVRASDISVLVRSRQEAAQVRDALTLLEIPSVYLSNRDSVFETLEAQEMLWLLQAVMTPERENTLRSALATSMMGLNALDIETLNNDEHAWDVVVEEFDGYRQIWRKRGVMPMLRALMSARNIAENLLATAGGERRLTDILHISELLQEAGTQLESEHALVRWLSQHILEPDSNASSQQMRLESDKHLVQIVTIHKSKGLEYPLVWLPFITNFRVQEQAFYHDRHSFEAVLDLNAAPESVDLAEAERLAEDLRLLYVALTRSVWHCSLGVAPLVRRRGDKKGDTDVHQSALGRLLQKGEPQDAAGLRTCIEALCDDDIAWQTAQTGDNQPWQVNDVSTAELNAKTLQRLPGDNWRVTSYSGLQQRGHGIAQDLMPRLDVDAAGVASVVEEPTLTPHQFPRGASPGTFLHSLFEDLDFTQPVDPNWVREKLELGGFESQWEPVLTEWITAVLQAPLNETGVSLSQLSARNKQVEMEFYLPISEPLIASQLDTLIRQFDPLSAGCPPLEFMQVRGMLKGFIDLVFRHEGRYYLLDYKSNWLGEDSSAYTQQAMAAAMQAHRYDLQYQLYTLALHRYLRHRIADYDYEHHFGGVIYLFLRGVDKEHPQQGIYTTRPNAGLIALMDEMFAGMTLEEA

[17] = target: T2, Induced myeloid leukemia cell differentiation protein Mcl-1 (Homo sapiens, UniProt Q07820); assay: blockers of MCL1 binding to BIM peptide – biochemical, fluorescence polarization, BIM-BH3 peptide, 1536-well, dose response (AID 2217)
T2 sequence (Q07820 whole entry): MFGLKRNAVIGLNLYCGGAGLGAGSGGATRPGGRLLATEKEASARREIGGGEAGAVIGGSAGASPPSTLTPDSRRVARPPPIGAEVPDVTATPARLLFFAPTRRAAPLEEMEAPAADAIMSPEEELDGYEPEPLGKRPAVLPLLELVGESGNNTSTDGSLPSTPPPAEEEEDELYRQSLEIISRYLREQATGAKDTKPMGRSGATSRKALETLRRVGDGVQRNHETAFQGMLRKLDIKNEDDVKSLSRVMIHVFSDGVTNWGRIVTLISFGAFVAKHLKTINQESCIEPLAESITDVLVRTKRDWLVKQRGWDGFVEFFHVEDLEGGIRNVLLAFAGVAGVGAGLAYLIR

[18] = target: Transitional endoplasmic reticulum ATPase (Homo sapiens, UniProt P55072, C522A); assay: C522A mutant p97 ATPase inhibitors, dose response, counter-screen for p97 inhibitor project, biochemical, luminescence (AID 1544)
NS3 = NS3 (Hepatitis C virus, UniProt A3EZJ3); assay: PubChem AID 2173; set-up: species or system Hepacivirus hominis
[19] = target: T3, Low molecular weight phosphotyrosine protein phosphatase (Homo sapiens, UniProt P24666); type: functional; settings: read-out: IC50_Mean;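 note: Dose-response confirmation assay measuring inhibition of LMPTP enzyme activity by fluorescence intensity read-out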
T3 sequence (P24666 whole entry): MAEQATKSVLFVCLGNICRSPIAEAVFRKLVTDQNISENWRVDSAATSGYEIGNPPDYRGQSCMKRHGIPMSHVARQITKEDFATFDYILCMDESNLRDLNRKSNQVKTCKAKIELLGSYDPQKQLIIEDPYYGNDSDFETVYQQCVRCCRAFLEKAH

[20] = target: T4, Runt-related transcription factor 1/Core-binding factor subunit beta (Homo sapiens, UniProt Q01196+Q13951); assay: disruptors of Runt domain/CBFb-SMMHC interaction – biochemical, FRET, Cerulean-Runt, Venus-CBFb-SMMHC, uHTS, […] (AID 1434); type: protein assay
T4 sequence (Q01196 whole entry, the tested form may be a part): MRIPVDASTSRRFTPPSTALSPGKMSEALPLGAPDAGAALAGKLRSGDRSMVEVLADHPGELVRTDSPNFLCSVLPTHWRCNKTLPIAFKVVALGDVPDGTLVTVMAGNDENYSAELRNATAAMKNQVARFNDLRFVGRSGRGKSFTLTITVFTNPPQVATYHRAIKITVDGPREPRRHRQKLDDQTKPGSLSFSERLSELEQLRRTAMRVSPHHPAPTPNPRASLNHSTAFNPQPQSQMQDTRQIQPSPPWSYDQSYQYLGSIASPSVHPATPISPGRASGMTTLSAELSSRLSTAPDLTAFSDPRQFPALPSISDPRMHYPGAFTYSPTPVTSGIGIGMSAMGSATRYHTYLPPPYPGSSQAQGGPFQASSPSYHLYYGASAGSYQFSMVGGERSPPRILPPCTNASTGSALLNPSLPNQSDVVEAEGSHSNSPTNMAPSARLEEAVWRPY
T4 sequence (Q13951 whole entry, the tested form may be a part): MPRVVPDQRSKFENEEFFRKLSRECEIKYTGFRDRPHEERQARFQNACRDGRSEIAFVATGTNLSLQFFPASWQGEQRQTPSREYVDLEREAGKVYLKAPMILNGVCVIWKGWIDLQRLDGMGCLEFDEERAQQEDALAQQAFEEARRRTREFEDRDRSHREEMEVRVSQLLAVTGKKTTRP

[21] = target: T4, Runt-related transcription factor 1/Core-binding factor subunit beta; assay: Runt domain/CBFb-SMMHC interaction disruptors – biochemical, TR-FRET (AID 1438); type: protein assay
[22] = fluconazole-exposed Candida albicans growth modulators – fluorescence, retest, confirmation (AID 2467); type: functional, cell-based
[23] = target: T2, Induced myeloid leukemia cell differentiation protein Mcl-1; type: functional
[24] = NIH-3T3 fibroblast cytotoxicity, dose response, cytotoxicity control, cell-based, fluorescence, Alamar Blue, secondary assay (AID 2327); type: functional;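 note: NIH-3T3 mouse fibroblasts cultured with fluconazole at 8 µg/mL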
[25] = target: T5, Mannose-6-phosphate isomerase (Homo sapiens, UniProt P34949); assay: MPI enzyme activity inhibition – biochemical, fluorescence intensity, coupled assay, primary screen (AID 1209)
T5 sequence (P34949 whole entry): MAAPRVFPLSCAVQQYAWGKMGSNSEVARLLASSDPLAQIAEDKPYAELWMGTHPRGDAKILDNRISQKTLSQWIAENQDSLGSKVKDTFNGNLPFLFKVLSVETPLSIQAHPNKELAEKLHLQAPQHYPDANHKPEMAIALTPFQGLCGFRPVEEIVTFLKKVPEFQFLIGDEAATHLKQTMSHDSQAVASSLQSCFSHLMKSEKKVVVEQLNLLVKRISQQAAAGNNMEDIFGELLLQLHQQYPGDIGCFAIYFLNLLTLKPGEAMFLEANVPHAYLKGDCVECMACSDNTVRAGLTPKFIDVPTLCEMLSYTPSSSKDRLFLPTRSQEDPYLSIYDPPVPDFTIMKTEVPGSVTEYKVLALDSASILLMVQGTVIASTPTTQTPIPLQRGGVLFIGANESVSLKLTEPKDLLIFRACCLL

HeLa = assay: ATP-based viability loss in HeLa cells – cell-based, CellTiter-Glo luminescence, cherry-pick samples, cytotoxicity control for MITF activator project, dose response (AID 540259); type: functional; settings: Homo sapiens
Hexokinase-1 = Hexokinase-1 (Homo sapiens, UniProt P19367); assay: hexokinase 1 activity inhibitors, potency – biochemical, set 2, resazurin fluorescence coupled readout, selectivity assay for HKDC1 inhibitor project, SAR follow-up (AID 588356); type: functional
Hexokinase HKDC1 = Hexokinase HKDC1 (Homo sapiens, UniProt Q2TB90); assay: analog inhibition of human HKDC1 activity – biochemical, set 2, SAR follow-up (AID 588355); type: functional

CCCCN1CCC(n2c(=O)[nH]c3ccccc32)CC1
AC50 [1]: 11.2 µM (inconclusive)

COc1ccc(CCNC(=O)CCS(=O)(=O)c2ccc(Br)cc2)cc1OC
EC50 [2]: 14.9 µM (active)

CCOc1ccc(-c2cc(CCCC(=O)Nc3cccc(OC)c3)no2)cc1
EC50 [3]: 7.56 µM (active)
IC50 [4]: > 80 µM (inactive)
EC50 [5]: 0.24 µM (active)
IC50 (Jurkat): 9.95 µM (active)
EC50 [6]: 3.89 µM (active)
AC50 [7]: 58.9 µM (active)
AC50 [8]: 55.4 µM (active)
AC50 [9]: 2.45 µM (active)

CCOC(=O)C1(CCOc2ccccc2)CCN(Cc2ccc3c(c2)OCCO3)CC1
EC50 [10]: 1.33 µM (active)
EC50 (Mu-type opioid receptor): > 92.5 µM (inactive)
EC50 [11]: > 92.5 µM (inactive)
EC50 [12]: > 92.5 µM (inactive)

Oc1ccc2nnc3c(Br)cnn3c2c1
AC50 (ORF 73): 6.64 µM (active)
IC50 (CHO): > 49.8 µM (inactive)
AC50 (Keap1/Nrf2): 16.1 µM (active)
IC50 (Beta Lactamase): 6.63 µM (active)
AC50 [13]: 1.11 µM (active)

COc1cccc(-n2c(SCc3cc(=O)oc4cc(O)c(O)cc34)nc3ccccc3c2=O)c1
IC50 (Large T antigen): > 100 µM (active)
IC50 [14]: > 119 µM (inactive)
IC50 [15]: 21.1 µM (not active)
IC50 (Bcl-2-like protein 1): > 109 µM (not active)
CC50 [16]: > 100 µM (inactive)
IC50 (Exodeoxyribonuclease V): > 119 µM (inactive)
IC50 [17]: > 109 µM (not active)
IC50 [18]: > 50 µM (not active)
IC50 (NS3): 2.31 µM (active)
IC50 [19]: 53.1 µM (inactive)
IC50 [20]: 2 µM (active)
IC50 [21]: 19.3 µM (active)
EC50 [22]: > 38 µM (not active)
IC50 [23]: 2.72 µM (active)
EC50 [24]: > 150 µM (inactive)
IC50 [25]: 15.6 µM (active)

Cc1cccc(-c2cc(N)n(-c3ccccc3)n2)c1
AC50 (HeLa): > 350 µM (inactive)

CCCCN1C(=O)C(NC(C)=O)c2cc(OC)ccc21 (stereo not drawn)
IC50 (Hexokinase-1): > 80 µM (inactive)
IC50 (Hexokinase HKDC1): > 80 µM (inactive)
